In ChEMBL document CHEMBL3832540, “DailyMed|setid=3ce9ee32-b18b-4ef3-b127-ce479d520e1a | BRILINTA- ticagrelor tablet|Bryant Ranch Prepack”:

Key:
[1] = (§1) Evaluation of pharmacokinetic parameters for Ticagrelor following oral administration of Ticagrelor tablets (BRILINTA); assay type: ADME, organism-based; conditions: human, in vivo, dosed compound id 12, dosed compound name TICAGRELOR, tissue Plasma
Homo sapiens = experiment: as §1; assay type: ADME, organism-based; conditions: in vivo, po, dosed compound id 12, dosed compound name TICAGRELOR, tissue Plasma

Tmax [1]: 1.5 h | bioavailability [1]: 36% | half-life [1]: 7 h | Protein bound (Homo sapiens): 99% | Vd (Homo sapiens): 88 L
Structure (SMILES): CCCSc1nc(N[C@@H]2C[C@H]2c2ccc(F)c(F)c2)c2nnn([C@@H]3C[C@H](OCCO)[C@@H](O)[C@H]3O)c2n1 [TICAGRELOR]
